According to ChEMBL document CHEMBL3351950, “Synthesis of genistein coupled with sugar derivatives and their inhibitory effect on nitric oxide production in macrophages” (Eur J Med Chem, 2014):
Calls of active or inactive are those of the source. The rule behind the calls is not given here.

Columns and labels:
[1] = Cytotoxicity against LPS/IFNgamma-stimulated mouse RAW264.7 cells assessed as cell viability at 26 uM after 48 hrs by MTT method (reference value: 100 +/- 1.8%); format: cell-based; conditions: LPS/IFNgamma-stimulated RAW264.7 cells, read-out: Activity
[2] = test system: J774.A1; test: Inhibition of TNFalpha production in LPS/IFNgamma-stimulated mouse J774A1 cells assessed as TNFalpha level at 6.5 uM by ELISA method (reference value: 89.2 +/- 17.1 pg/mL); format: functional
[3] = test system: RAW264.7; test: Inhibition of TNFalpha production in LPS/IFNgamma-stimulated mouse RAW264.7 cells assessed as TNFalpha level at 6.5 uM by ELISA method; format: functional, cell-based
[4] = test system: J774.A1; test: Inhibition of nitric oxide production in LPS/IFNgamma-stimulated mouse J774A1 cells assessed as nitrites level at 13 uM by Griess method (reference value: 16.5 +/- 1.4 uM); format: functional
[5] = test system: J774.A1; test: Inhibition of nitric oxide production in LPS/IFNgamma-stimulated mouse J774A1 cells assessed as nitrites level at 6.5 uM by Griess method (reference value: 16.5 +/- 1.4 uM); format: functional
[6] = test system: J774.A1; test: Inhibition of nitric oxide production in LPS/IFNgamma-stimulated mouse J774A1 cells assessed as nitrites level at 26 uM by Griess method (reference value: 16.5 +/- 1.4 uM); format: functional
[7] = Cytotoxicity against LPS/IFNgamma-stimulated mouse J774A1 cells assessed as cell viability at 6.5 uM after 48 hrs by MTT method (reference value: 100 +/- 1.1%); format: cell-based, J774.A1; conditions: read-out: Activity
[8] = Cytotoxicity against LPS/IFNgamma-stimulated mouse J774A1 cells assessed as cell viability at 13 uM after 48 hrs by MTT method (reference value: 100 +/- 1.1%); format: cell-based, J774.A1; conditions: read-out: Activity
[9] = Cytotoxicity against LPS/IFNgamma-stimulated mouse J774A1 cells assessed as cell viability at 26 uM after 48 hrs by MTT method (reference value: 100 +/- 1.1%); format: cell-based, J774.A1; conditions: read-out: Activity
[10] = test system: RAW264.7; test: Inhibition of nitric oxide production in LPS/IFNgamma-stimulated mouse RAW264.7 cells assessed as nitrites level at 6.5 uM by Griess method (reference value: 6.4 +/- 0.5 uM); format: functional
[11] = test system: RAW264.7; test: Inhibition of nitric oxide production in LPS/IFNgamma-stimulated mouse RAW264.7 cells assessed as nitrites level at 13 uM by Griess method (reference value: 6.4 +/- 0.5 uM); format: functional
[12] = test system: RAW264.7; test: Inhibition of nitric oxide production in LPS/IFNgamma-stimulated mouse RAW264.7 cells assessed as nitrites level at 26 uM by Griess method (reference value: 6.4 +/- 0.5 uM); format: functional
[13] = Cytotoxicity against LPS/IFNgamma-stimulated mouse RAW264.7 cells assessed as cell viability at 6.5 uM after 48 hrs by MTT method (reference value: 100 +/- 1.8%); format: cell-based; conditions: LPS/IFNgamma-stimulated RAW264.7 cells, read-out: Activity
[14] = Cytotoxicity against LPS/IFNgamma-stimulated mouse RAW264.7 cells assessed as cell viability at 13 uM after 48 hrs by MTT method (reference value: 100 +/- 1.8%); format: cell-based; conditions: LPS/IFNgamma-stimulated RAW264.7 cells, read-out: Activity

| Compound | viability at 48 h, 26 µM [1] [%] | inhibition [2] | inhibition [3] | Activity [4] [µM] | Activity [5] [µM] | Activity [6] [µM] | viability at 48 h, 6.5 µM [7] [%] | viability at 48 h, 13 µM [8] [%] | viability at 48 h, 26 µM [9] [%] | Activity [10] [µM] | Activity [11] [µM] | Activity [12] [µM] | viability at 48 h, 6.5 µM [13] [%] | viability at 48 h, 13 µM [14] [%] | Activity [2] [pg/mL] |
| --- | --- | --- | --- | --- | --- | --- | --- | --- | --- | --- | --- | --- | --- | --- | --- |
| CC1(C)O[C@H]2[C@@H](O1)[C@@H](COc1ccc(-c3coc4cc(OC[C@H]5O[C@@H]6OC(C)(C)O[C@@H]6[C@H]6OC(C)(C)O[C@H]65)cc(O)c4c3=O)cc1)O[C@@H]1OC(C)(C)O[C@@H]12 | 94.4 | inactive | inactive | 11.8 | 9.8 | 12.3 | 89.7 | 87.3 | 83.6 | 2.6 | 2.7 | 2.4 | 98.9 | 89.4 | – |
| O=c1c(-c2ccc(O)cc2)coc2cc(OC[C@H]3O[C@H](O)[C@H](O)[C@@H](O)[C@H]3O)cc(O)c12 | 95.8 | – | inactive | 10.9 | 9.7 | 9.1 | 93.6 | 95.2 | 88.9 | 1.4 | 0 | 0 | 95.9 | 98.2 | 38.3 |
| CO[C@H]1O[C@H](COc2ccc(-c3coc4cc(OC[C@H]5O[C@H](OC)[C@H](O)[C@@H](O)[C@@H]5O)cc(O)c4c3=O)cc2)[C@@H](O)[C@H](O)[C@H]1O | 92.2 | inactive | inactive | 9.1 | 8.7 | 8.5 | 99.9 | 96.6 | 94.8 | 0 | 0 | 0 | 93.6 | 99.2 | – |
| CC1(C)O[C@H]2[C@@H](O1)[C@@H](COc1cc(O)c3c(=O)c(-c4ccc(O)cc4)coc3c1)O[C@@H]1OC(C)(C)O[C@@H]12 | 71.3 | inactive | inactive | 12.8 | 17.7 | 0.7 | 102 | 85.5 | 30.3 | 2.4 | 2.5 | 3.1 | 87.6 | 88.1 | – |
| CO[C@H]1O[C@H](COc2cc(O)c3c(=O)c(-c4ccc(O)cc4)coc3c2)[C@@H](OC(C)=O)[C@H](OC(C)=O)[C@H]1OC(C)=O | 103 | – | inactive | 13.1 | 12.7 | 10.4 | 94.7 | 92.7 | 87.4 | 2.1 | 4.2 | 2.4 | 103 | 104 | 51.7 |
| O=c1c(-c2ccc(O)cc2)coc2cc(O)cc(O)c12 [GENISTEIN] | 108 | inactive | – | 13.8 | 13.4 | 14.5 | 112 | 104 | 110 | 6.3 | 6.3 | 6.1 | 128 | 103 | – |
| CO[C@H]1O[C@H](COc2ccc(-c3coc4cc(OC[C@H]5O[C@H](OC)[C@H](OC(C)=O)[C@@H](OC(C)=O)[C@@H]5OC(C)=O)cc(O)c4c3=O)cc2)[C@@H](OC(C)=O)[C@H](OC(C)=O)[C@H]1OC(C)=O | 101 | – | inactive | 12.1 | 11.5 | 11.7 | 82.1 | 86.7 | 87.9 | 1.9 | 2.5 | 4.1 | 103 | 98.4 | 51.9 |
| CO[C@H]1O[C@H](COc2cc(O)c3c(=O)c(-c4ccc(O)cc4)coc3c2)[C@@H](O)[C@H](O)[C@H]1O | 78.3 | inactive | inactive | 11.3 | 7.2 | 14.3 | 68.1 | 64.3 | 44.9 | 1.4 | 1 | 1.7 | 91.3 | 88.1 | – |
